Like-named read-outs stand apart in the source and are kept apart here.
Columns and labels:
[1] = target: T1, α1A Human Adrenergic Receptor (Homo sapiens, UniProt P25100); assay: Radioligand binding, [3H]prazosin, cloned human α1A adrenergic receptor
T1 construct: The entire coding region of α1A (1719 bp); expressed in transfected cells
T1 sequence (P25100 1-572): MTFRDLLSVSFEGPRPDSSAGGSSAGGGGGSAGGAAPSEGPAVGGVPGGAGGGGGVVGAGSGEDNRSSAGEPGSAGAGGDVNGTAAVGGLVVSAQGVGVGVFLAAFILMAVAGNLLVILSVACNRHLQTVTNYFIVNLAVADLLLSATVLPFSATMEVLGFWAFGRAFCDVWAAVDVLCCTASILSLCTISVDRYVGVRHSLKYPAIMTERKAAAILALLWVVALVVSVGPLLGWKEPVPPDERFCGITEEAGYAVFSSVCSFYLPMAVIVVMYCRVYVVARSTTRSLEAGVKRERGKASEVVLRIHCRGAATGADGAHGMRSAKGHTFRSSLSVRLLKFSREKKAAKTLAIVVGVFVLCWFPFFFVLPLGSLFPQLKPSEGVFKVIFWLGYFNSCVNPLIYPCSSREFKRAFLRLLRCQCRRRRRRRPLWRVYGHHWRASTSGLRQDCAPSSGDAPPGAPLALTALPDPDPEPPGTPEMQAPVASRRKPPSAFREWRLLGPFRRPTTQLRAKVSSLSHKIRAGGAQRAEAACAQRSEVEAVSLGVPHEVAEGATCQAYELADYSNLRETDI
How it was run: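 Membranes from LM(tk−) cells transfected with human α1A were incubated with 0.5 nM [3H]prazosin in 50 mM Tris-HCl, 1 mM MgCl2, 0.1% ascorbic acid, pH 7.5, for 20 min at 37° C. Nonspecific binding was defined with 10 μM phentolamine. Bound ligand was separated by GF/B filtration.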

[2] = target: T2, α1B Human Adrenergic Receptor (Homo sapiens, UniProt P35368); assay: Radioligand binding, [3H]prazosin, cloned human α1B adrenergic receptor
T2 construct: The entire coding region of α1B (1563 bp); expressed in transfected cells
T2 sequence (P35368 1-520): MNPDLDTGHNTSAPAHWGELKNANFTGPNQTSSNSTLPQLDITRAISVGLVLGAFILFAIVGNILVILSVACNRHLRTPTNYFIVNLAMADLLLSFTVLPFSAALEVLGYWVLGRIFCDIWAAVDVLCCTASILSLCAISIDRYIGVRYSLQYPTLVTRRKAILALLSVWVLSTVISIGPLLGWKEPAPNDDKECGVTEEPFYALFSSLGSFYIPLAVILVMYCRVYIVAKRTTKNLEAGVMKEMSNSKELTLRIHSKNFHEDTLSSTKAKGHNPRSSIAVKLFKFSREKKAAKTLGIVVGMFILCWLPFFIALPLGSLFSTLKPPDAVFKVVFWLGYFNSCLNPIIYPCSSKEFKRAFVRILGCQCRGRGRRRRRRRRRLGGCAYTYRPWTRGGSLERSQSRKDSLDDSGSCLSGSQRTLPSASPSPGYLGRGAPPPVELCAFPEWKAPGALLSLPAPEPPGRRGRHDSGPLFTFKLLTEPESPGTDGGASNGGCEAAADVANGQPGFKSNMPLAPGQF
How it was run: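 Membranes from stably transfected LM(tk−) cells, resuspended in 50 mM Tris-HCl, 1 mM MgCl2, 0.1% ascorbic acid, pH 7.5, were incubated with 0.5 nM [3H]prazosin for 20 min at 37° C. Nonspecific binding defined with 10 μM phentolamine; bound ligand separated by GF/B filtration.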

[3] = target: T3, α1C Human Adrenergic Receptor (Homo sapiens, UniProt P35348); assay: Radioligand binding, [3H]prazosin, cloned human α1C adrenergic receptor
T3 construct: The entire coding region of α1C (1401 bp); expressed in transfected cells
T3 sequence (P35348 1-466): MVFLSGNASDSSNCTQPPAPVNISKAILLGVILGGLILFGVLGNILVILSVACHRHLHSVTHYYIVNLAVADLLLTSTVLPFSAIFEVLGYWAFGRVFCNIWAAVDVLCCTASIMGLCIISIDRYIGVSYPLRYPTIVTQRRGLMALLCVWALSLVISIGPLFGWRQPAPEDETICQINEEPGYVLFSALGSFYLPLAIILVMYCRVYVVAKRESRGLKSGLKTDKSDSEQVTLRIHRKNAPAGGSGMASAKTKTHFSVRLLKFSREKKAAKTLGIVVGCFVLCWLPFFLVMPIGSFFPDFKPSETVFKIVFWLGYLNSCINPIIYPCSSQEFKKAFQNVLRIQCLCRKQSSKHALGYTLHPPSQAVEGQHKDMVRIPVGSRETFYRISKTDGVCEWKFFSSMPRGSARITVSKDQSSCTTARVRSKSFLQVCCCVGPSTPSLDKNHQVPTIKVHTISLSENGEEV
How it was run: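 Antagonist radioligand [3H]prazosin at 0.5 nM labels human α1C receptors in stably transfected LM(tk−) cell membranes over 20 min at 37° C. Phentolamine (10 μM) gives nonspecific binding.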

L-type calcium channel = target: T4, L-type calcium channel (Rattus norvegicus, UniProt P22002); assay: Competition binding of [3H]nitrendipine to membrane fragments of rat cardiac muscle
T4 construct: membrane fragments of rat cardiac muscle; from tissue; host or cells: rat cardiac muscle membranes
T4 sequence (P22002 whole entry, other chains not shown, the tested form may be a part): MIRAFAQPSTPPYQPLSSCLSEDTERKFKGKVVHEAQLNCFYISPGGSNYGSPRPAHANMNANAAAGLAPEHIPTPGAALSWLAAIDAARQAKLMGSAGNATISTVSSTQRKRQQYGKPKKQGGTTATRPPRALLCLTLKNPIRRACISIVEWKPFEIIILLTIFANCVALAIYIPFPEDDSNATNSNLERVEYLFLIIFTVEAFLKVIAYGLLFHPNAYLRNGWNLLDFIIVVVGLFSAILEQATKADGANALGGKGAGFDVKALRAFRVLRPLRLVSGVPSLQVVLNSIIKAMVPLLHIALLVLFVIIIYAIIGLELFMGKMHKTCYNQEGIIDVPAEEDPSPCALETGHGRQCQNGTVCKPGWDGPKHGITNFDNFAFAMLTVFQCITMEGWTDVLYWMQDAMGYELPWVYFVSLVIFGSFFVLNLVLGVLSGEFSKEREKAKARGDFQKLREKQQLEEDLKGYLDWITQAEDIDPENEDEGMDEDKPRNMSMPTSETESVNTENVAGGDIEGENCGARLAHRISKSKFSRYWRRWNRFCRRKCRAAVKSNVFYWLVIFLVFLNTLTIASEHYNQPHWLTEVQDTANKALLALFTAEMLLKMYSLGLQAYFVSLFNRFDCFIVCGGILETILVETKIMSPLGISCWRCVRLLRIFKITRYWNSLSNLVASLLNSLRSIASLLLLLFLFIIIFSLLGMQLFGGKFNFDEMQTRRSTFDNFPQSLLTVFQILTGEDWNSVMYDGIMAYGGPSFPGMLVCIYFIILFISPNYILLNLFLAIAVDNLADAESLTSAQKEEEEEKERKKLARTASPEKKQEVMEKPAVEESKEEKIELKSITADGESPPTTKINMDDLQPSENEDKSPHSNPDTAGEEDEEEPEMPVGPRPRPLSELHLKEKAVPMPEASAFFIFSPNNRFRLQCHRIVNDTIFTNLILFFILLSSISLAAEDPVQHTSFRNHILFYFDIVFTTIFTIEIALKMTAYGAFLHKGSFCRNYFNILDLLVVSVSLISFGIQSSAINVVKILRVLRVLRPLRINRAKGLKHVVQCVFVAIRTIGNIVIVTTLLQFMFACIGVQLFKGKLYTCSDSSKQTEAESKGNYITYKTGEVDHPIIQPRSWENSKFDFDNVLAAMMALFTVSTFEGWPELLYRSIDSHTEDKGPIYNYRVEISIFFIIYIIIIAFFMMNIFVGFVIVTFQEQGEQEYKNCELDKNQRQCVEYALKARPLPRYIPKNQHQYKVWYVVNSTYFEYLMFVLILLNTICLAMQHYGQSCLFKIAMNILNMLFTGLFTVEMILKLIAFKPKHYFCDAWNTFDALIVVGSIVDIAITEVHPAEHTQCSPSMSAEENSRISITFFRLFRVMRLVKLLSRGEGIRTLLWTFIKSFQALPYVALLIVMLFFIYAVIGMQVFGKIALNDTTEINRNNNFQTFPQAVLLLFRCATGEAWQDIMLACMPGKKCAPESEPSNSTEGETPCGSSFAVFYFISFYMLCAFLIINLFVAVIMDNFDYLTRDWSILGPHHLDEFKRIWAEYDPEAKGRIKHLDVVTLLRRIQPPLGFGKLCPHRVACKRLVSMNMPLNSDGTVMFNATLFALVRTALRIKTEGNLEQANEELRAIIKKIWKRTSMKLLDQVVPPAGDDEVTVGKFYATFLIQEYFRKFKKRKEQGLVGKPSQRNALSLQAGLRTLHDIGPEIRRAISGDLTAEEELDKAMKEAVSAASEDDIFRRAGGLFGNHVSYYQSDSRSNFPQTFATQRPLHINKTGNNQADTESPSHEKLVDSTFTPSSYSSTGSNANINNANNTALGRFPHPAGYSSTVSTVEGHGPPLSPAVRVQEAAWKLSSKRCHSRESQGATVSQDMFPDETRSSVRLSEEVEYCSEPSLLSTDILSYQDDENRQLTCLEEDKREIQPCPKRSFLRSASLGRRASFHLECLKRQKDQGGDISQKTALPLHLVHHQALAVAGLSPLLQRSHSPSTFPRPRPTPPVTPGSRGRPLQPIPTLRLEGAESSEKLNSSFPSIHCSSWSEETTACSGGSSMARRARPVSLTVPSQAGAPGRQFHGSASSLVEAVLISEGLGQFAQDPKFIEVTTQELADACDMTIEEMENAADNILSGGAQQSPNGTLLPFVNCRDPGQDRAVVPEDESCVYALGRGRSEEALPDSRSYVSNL
T4 sequence (P54290 25-944 partner limits assumed, other chains not shown): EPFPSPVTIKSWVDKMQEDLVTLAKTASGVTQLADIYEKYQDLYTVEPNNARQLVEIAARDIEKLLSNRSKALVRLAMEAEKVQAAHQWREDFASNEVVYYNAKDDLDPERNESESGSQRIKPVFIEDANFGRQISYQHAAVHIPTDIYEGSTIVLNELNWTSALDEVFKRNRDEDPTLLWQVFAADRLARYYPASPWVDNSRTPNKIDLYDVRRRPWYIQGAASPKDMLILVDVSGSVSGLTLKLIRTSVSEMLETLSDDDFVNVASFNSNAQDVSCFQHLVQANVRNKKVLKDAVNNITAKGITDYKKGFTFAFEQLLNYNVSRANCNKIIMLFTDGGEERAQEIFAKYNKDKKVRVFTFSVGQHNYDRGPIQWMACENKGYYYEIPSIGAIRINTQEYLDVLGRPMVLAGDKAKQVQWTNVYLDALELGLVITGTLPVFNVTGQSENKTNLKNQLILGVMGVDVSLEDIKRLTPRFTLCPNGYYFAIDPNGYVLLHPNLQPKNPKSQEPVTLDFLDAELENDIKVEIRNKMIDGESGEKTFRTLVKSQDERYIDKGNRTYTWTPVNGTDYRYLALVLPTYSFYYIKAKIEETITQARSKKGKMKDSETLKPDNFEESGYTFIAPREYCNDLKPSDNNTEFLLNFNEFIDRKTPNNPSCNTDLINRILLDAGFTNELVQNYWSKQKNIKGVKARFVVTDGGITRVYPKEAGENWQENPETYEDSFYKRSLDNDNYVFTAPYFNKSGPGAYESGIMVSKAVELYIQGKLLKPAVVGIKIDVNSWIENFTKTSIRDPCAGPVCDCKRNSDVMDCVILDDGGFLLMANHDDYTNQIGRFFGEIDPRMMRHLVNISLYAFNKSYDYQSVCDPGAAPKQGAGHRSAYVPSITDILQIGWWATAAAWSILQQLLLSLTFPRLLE
T4 sequence (P54290 945-1091 partner limits assumed, other chains not shown): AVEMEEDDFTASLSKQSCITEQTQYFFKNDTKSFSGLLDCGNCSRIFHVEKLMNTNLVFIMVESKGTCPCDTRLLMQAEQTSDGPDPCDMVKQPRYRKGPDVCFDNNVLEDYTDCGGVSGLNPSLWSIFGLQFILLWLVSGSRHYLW
Experimental: The protocols for these experiments are given below.
Determination of the Activity of al Antagonists at Calcium Channels
Briefly, the tissue was minced and homogenized in 50 mM Tris-HCl (pH 7.4) containing 0.1 mM phenylmethylsulfonyl fluoride. The homogenates were centrifuged at 1000 g for 15 minutes, the resulting supernatant was centrifuged at 45,000 g for 15 minutes. The 45,000 g pellet was suspended in buffer and centrifuged a second time. Aliquots of membrane protein were incubated for 30 minutes at 37° C. in the presence of [3H]nitrendipine (1 nM), and nonspecific binding was determined in the presence of 10 μM nifedipine. The bound radioligand was separated by filtration through GF/B filters using a cell harvester.

[4] = [3H]prazosin, cloned human receptor in LM(tk-) cell membranes, SEM and n in lines below, read-out: pKi alpha-1 1a (converted)
[5] = cloned human receptor in LM(tk-) cell membranes, SEM and n in lines below, read-out: pKi alpha-1 1b (converted)
[6] = cloned human receptor in LM(tk-) cell membranes, SEM and n in lines below, read-out: pKi alpha-1 1c (converted)
[7] = [3H]nitrendipine, rat cardiac muscle membranes, SEM and n in lines below, read-out: pKi Ca (converted)
[8] = pKi alpha-1 1a, [3H]prazosin, cloned human α1A receptor, LM(tk−) cell membranes
[9] = pKi alpha-1 1b, cloned human α1B receptor, LM(tk−) cell membranes
[10] = pKi alpha-1 1c, cloned human α1C receptor, LM(tk−) cell membranes
[11] = [3H]nitrendipine, rat cardiac muscle membrane fragments, L-type calcium channel, read-out: pKi Ca (converted)
[12] = PKi alpha-1 1a, [3H]prazosin, cloned human receptor, LM(tk-) cell membranes, mean
[13] = PKi alpha-1 1b, cloned human receptor, LM(tk-) cell membranes, mean
[14] = PKi alpha-1 1c, cloned human receptor, LM(tk-) cell membranes, mean
[15] = [3H]nitrendipine, rat cardiac muscle membranes, mean, read-out: PKi Ca (converted)

SMILES | melting point | Ki [1, 8] | Ki [2, 9] | Ki [3, 10] | Ki (L-type calcium channel; [11]) | also measured
COC(=O)C1=C(C)NC(C)=C(C(=O)NCCCN2CCC(c3ccccc3)CC2)C1c1ccncc1 (centres unmarked) [Example 32, 1,4-Dihydro-3-methoxycarbonyl-2,6-dimethyl-5-(N-(3-(4-phenylpiperidin-1-yl)propyl)carboxamido)-4-(4-pyridyl)pyridine] | 79 to 80 °C |  |  |  |  | Ki [1, 4]: 0.741 µM; Ki [2, 5]: 0.302 µM; Ki [3, 6]: 0.0132 µM; Ki (L-type calcium channel; [7]): 1.58 µM
COC(=O)C1=C(C)NC(C)=C(C(=O)OCCCN(C)C)C1c1ccc([N+](=O)[O-])cc1.Cl (centres unmarked) [Example 44, 1,4-Dihydro-5-methoxycarbonyl-2,6-dimethyl-3-{3-[(N,N-dimethyl)amino]propoxy}carbonyl-4-(4-nitrophenyl) pyridine hydrochloride] | 120 to 121 °C |  |  |  |  | Ki [1, 4]: 5.89 µM; Ki [2, 5]: 8.32 µM; Ki [3, 6]: 1.7 µM; Ki (L-type calcium channel; [7]): 16.6 µM
CCNC(=O)C1=C(CC)NC(CC)=C(C(=O)NCCCN2CCC(c3ccccc3)(c3ccccc3)CC2)C1c1ccc([N+](=O)[O-])cc1 (centres unmarked) [Example 129, 2,6-Diethyl-5-(N-ethyl)carboxamido-1,4-dihydro-4-(4-nitrophenyl)-3-{N-[3-(4,4-diphenylpiperidin-1-yl)propyl]}carboxamidopyridine] | 101 to 104 °C | 0.676 µM | 0.513 µM | 0.00372 µM | 100 µM | 
CCNC(=O)C1=C(C)NC(C)=C(C(=O)NCCCN2CCC(c3ccccc3)(c3ccccc3)CC2)C1c1ccc([N+](=O)[O-])cc1 (centres unmarked) [Example 131, 5-(N-Ethyl)carboxamido-1,4-dihydro-2,6-dimethyl-4-(4-nitrophenyl)-3-{N-[3-(4,4-diphenylpiperidin-1-yl)propyl]}carboxamidopyridine] | 104 to 108 °C | 1.48 µM | 0.851 µM | 0.00457 µM | 100 µM | 
CCC1=C(C(=O)NCCCN2CCC(c3ccccc3)(c3ccccc3)CC2)C(c2ccc([N+](=O)[O-])cc2)C(C(=O)NC(C)C)=C(CC)N1 (centres unmarked) [Example 132] | 201 °C (dec.) | 0.776 µM | 0.389 µM | 0.0575 µM | 79.4 µM | 
CCCC1=C(C(=O)NCC)C(c2ccc([N+](=O)[O-])cc2)C(C(=O)NCCCN2CCC(c3ccccc3)(c3ccccc3)CC2)=C(CCC)N1 (centres unmarked) [Example 159, 5-(N-Ethyl)carboxamido-1,4-dihydro-4-(4-nitrophenyl)-3-{N-[3-(4,4-diphenylpiperidin-1-yl)propyl]}carboxamido-2,6-dipropylpyridine] | 123 to 128 °C |  |  |  |  | Ki ([1]; pKi alpha-1 1a): 0.389 µM; Ki ([2]; cloned human α1B receptor, LM(tk−) cell membranes, read-out: pKi alpha-1 1b (converted)): 0.178 µM; Ki ([3]; cloned human α1C receptor, LM(tk−) cell membranes, read-out: pKi alpha-1 1c (converted)): 0.00501 µM; Ki (L-type calcium channel; pKi Ca): 1.66 µM
CCCC1=C(C(=O)O)C(c2ccc([N+](=O)[O-])cc2)C(C(=O)NCCCN2CCC(c3ccccc3)(c3ccccc3)CC2)=C(CCC)N1 (centres unmarked) [Example 161, 1,4-Dihydro-4-(4-nitrophenyl)-5-{N-[3-(4,4-diphenylpiperidin-1-yl)propyl]}carboxamido-2,6-dipropylpyridine-3-carboxylic acid] | 126 to 130 °C | 1.32 µM | 0.407 µM | 0.0389 µM | 1000 µM | 
COc1ccc(C2(c3ccccc3)CCN(CCCNC(=O)C3=C(COCCN=[N+]=[N-])NC(C)=C(C(N)=O)C3c3ccc([N+](=O)[O-])cc3)CC2)cc1 (centres unmarked) [Example 184, 2-[(2-Azidoethoxy)methyl]-5-carboxamido-1,4-dihydro-3-{N-[3-(4-(4-methoxyphenyl)-4-phenylpiperidin-1-yl)propyl]}carboxamido-6-methyl-4-(4-nitrophenyl)pyridine] | 105 to 107 °C |  |  |  |  | Ki [1, 12]: 0.741 µM; Ki [2, 13]: 0.174 µM; Ki [3, 14]: 0.00955 µM; Ki (L-type calcium channel; [15]): 12.3 µM
CNC(=O)C1=C(C)NC(C)=C(C(=O)NCCCN2CCC(C(=O)OC)(c3ccccc3)CC2)C1c1ccc([N+](=O)[O-])cc1 (centres unmarked) [Example 187, 1,4-Dihydro-2,6-dimethyl-3-{N-[3-(4-methoxycarbonyl-4-phenylpiperidin-1-yl)propyl]}carboxamido-5-(N-methyl) carboxamido-4-(4nitrophenyl)pyridine] | 122 to 123 °C |  |  |  |  | Ki (L-type calcium channel; PKi Ca, [3H]nitrendipine, rat cardiac muscle membranes, mean): 513 µM
CCC1=C(C(=O)O)C(c2ccc([N+](=O)[O-])cc2)C(C(=O)NCCCN2CCC(c3ccccc3)CC2)=C(COC)N1 (centres unmarked) [Example 223, 6-Ethyl-1,4-dihydro-2-methyloxymethyl-4-(4-nitro)phenyl-3-(N-(3-(4-phenylpiperidin-1-yl)propyl))carboxamidopyridine-5-carboxylic Acid] |  |  |  |  |  | Ki ([1]; [3H]prazosin, cloned human receptor, LM(tk-) cell membranes, mean, read-out: PKi alpha-1 1a (converted)): 0.891 µM; Ki ([2]; cloned human receptor, LM(tk-) cell membranes, mean, read-out: PKi alpha-1 1b (converted)): 0.174 µM; Ki ([3]; cloned human receptor, LM(tk-) cell membranes, mean, read-out: PKi alpha-1 1c (converted)): 0.0347 µM; Ki (L-type calcium channel; [15]): 275 µM
CCC1=C(C(=O)NC)C(c2ccc([N+](=O)[O-])cc2)C(C(=O)NCCCN2CCC(c3ccccc3)(c3ccccc3)CC2)=C(COCCN=[N+]=[N-])N1 (centres unmarked) [Example 224, 2-((2-Azidoethyl)oxy)methyl-6-ethyl-1,4-dihydro-5-N-methylcarboxamido-4-(4-nitro)phenyl-3-(N-(3-(4,4-diphenylpiperidin-1-yl)propyl))carboxamidopyridine] |  |  |  |  |  | Ki [1, 12]: 0.661 µM; Ki [2, 13]: 0.263 µM; Ki [3, 14]: 0.00692 µM; Ki (L-type calcium channel; [15]): 15.1 µM
